Earlier results as cited in US20110160274A1 (PANACEA BIOTEC LIMITED, priority 2008, published 2011).

Conditions: after oral administration of fenofibrate

plasma elimination half life: about 20 hours
SMILES: CC(C)(Oc1ccc(C(=O)c2ccc(Cl)cc2)cc1)C(=O)O [fenofibric acid]
